Experimental findings from patent publication US20250361231A1, “FUSED RING COMPOUNDS WITH SULFUR-CONTAINING SUBSTITUENTS, PREPARATION METHODS, INSECTICIDE COMPOSITIONS, AND APPLICATION” (priority 2022, published 2025) are described below.

What all share (assay type): in vivo
In one test the test system is Myzus persicae. Put plainly: Activity against Myzus persicae (green peach aphid), pea seedling roots in test solution. Conditions: 144 h, test rate 100 ppm, 6 days after placing seedlings into test solutions. As to the method:
(§1) This test case is used to illustrate the insecticidal activity inhibition (%) of compounds with the structure shown in formula (I) (dosage of 100 ppm).
(§2) Roots of pea seedlings infested with an aphid population of mixed ages were placed directly into agueous test solutions prepared from […] stock solutions. The samples were assessed for mortality 6 days after placing seedlings into test solutions.

Another test deals with Plutella xylostella. Nature of the test: Activity against Plutella xylostella, artificial diet in 24-well plates, L2 larvae. The settings on record: for percent effect (mortality or growth inhibition) at 100 ppm: Plutella xylostella, 120 h, application rate 100 ppm, 5 days after infestation, read-out: effect in at least one of the two categories (mortality or growth inhibition); for effect: application rate 4 ppm. How it is done: (§3) 24-well microtiter plates with artificial diet were treated with agueous test solutions prepared from 10,000 ppm DMSO stock solutions by pipetting. After drying, the plates were infested with L2 larvae (10 to 15 per well). The samples were assessed for mortality and growth inhibition in comparison to untreated samples 5 days after infestation.

In another test the test system is Leucania separate. Nature of the test: Activity against Leucania separate, sprayed maize sprouts, L2 larvae. Conditions: 96 h; application rate 100 ppm; 4 days after infestation; read-out: effect in at least one of the two categories (mortality or growth inhibition). As to the method: as §1
Maize sprouts placed onto an agar layer in 24-well microtiter plates were treated with agueous test solutions prepared from 10,000 ppm DMSO stock solutions by spraying. After drying, the plates were infested with L2 larvae (6 to 10 per well). The samples were assessed for mortality and growth inhibition in comparison to untreated samples 4 days after infestation.

The subject of the next test is Nilaparvata lugens. Put plainly: Activity against Nilaparvata lugens, sprayed leaf discs, adults. The settings on record: for mortality at 100 ppm: Nilaparvata lugens, foliar, 144 h, test rate 100 ppm, 6 days after incubation; for effect: application rate 45 ppm. As to the method: Cotton leaf discs were placed on agar in 24-well microtiter plates and sprayed with agueous test solutions prepared from 10,000 ppm DMSO stock solutions. After drying the leaf discs were infested with adult Nilaparvata lugens. The samples were checked for mortality 6 days after incubation.

Another test relates to Aphis craccivora Koch. Put plainly: Activity against Aphis craccivora Koch, pea seedling roots in test solution. Conditions: for mortality at 100 ppm: Aphis craccivora, 144 h, test rate 100 ppm, 6 days after placing seedlings into test solutions; for effect: application rate 4 ppm. How it is done: as §2
The subject of a further test is Laphygma exigua. Nature of the test: Activity against Laphygma exigua, artificial diet in 24-well plates, L2 larvae. Conditions: application rate 4 ppm. As to the method:
as §3

In the next test the test system is Chilo suppressalis. Nature of the test: Activity against Chilo suppressalis, soaked rice seedlings, L2 larvae. The settings on record: application rate 5 ppm, after 96 hours, read-out: effect (mortality rates). How it is done: Take 5-6 rice seedlings, each 3-4 cm in height, soak them thoroughly in the prepared solution, After drying, the plates were infested with L2 larvae (10 per well). Keep them in an observation room for rearing and observation. Use 0.1% warm water as a blank control. Incubate them in an observation room at 25 to 27° C. After 96 hours, assess the samples based on mortality rates

For `CCS(=O)(=O)c1cc2nc(C3CC3)n(C)c2nc1-c1nc2cc(C(F)(F)F)cnc2n1C` [Compound I-1], the mortality at 100 ppm in the test on Myzus persicae, in the test on Nilaparvata lugens and with Aphis craccivora Koch was not below 90% throughout. For the same molecule, the percent effect (mortality or growth inhibition) at 100 ppm with Plutella xylostella and with Leucania separate was not below 90% in each case. Further, the effect in the test with Aphis craccivora Koch stood at 100%.

In the case of `CCS(=O)(=O)c1cc2nc(C(F)(F)F)sc2nc1-c1nc2cc(C(F)(F)F)cnc2n1C` [Compound I-100], the effect was 95% in the test on Nilaparvata lugens and 100% with Aphis craccivora Koch.

In the case of `CCS(=O)(=O)c1cc2nc(C)n(C)c2nc1-c1nc2cc(C(F)(F)F)cnc2n1C` [Compound I-2], the mortality at 100 ppm with Myzus persicae, with Nilaparvata lugens and with Aphis craccivora Koch was not below 90% each time. Further, the percent effect (mortality or growth inhibition) at 100 ppm in the test on Plutella xylostella and with Leucania separate was not below 90% throughout.

Take `CCS(=O)(=O)c1cc2nc(C3CC3)sc2nc1-c1nc2cc(C(F)(F)F)cnc2n1C` [Compound I-73]: the mortality at 100 ppm with Myzus persicae, with Nilaparvata lugens and with Aphis craccivora Koch was not below 90% each time. The percent effect (mortality or growth inhibition) at 100 ppm in the test with Plutella xylostella and in the test on Leucania separate was not below 90% each time. The effect turned out to be 100% with Plutella xylostella, 95% with Nilaparvata lugens, 100% with Laphygma exigua and 100% with Aphis craccivora Koch. Also, the mortality (commonly the percentage killed) at 5 ppm in the test with Chilo suppressalis was determined as 100%.

In the case of `CCS(=O)(=O)c1cc2sc(C3CC3)nc2nc1-c1nc2cc(C(F)(F)F)cnc2n1C` [Compound I-109], the mortality at 100 ppm with Myzus persicae, in the test on Nilaparvata lugens and in the test on Aphis craccivora Koch was not below 90% in each case. Moreover, the percent effect (mortality or growth inhibition) at 100 ppm in the test with Plutella xylostella and in the test on Leucania separate was not below 90% throughout. Besides, the effect with Plutella xylostella was 100%; with Nilaparvata lugens, 95%; with Laphygma exigua, 100%; in the test with Aphis craccivora Koch, 100%. Also, the mortality at 5 ppm in the test on Chilo suppressalis was 100%.
